Data on 14 compounds can be found in DBAASP.

≈ marks a conversion by molar mass, not a printed value.

Among the test systems are Escherichia coli; Listeria innocua; Micrococcus luteus; Micrococcus luteus A270; Leuconostoc lactis; Staphylococcus aureus; Candida albicans; Bacillus subtilis.
Holding throughout (assay): ≥ marks a high value that may be exact or a test limit, other limits are often not marked, values filed in µg/mL are converted to µM
Assay [1] deals with Pseudomonas aeruginosa Ps4.
For assay [2], the system named is Salmonella enterica subsp. enterica serovar Enteritidis.
Assay [3] concerns Candida albicans ATCC 2002.
In assay [4] the test system is Staphylococcus aureus ATCC 2592.
For assay [5], the system named is Escherichia coli ATCC 25922.
Assay [6] relates to Enterococcus faecalis ATCC 29212.
Assay [7] relates to Staphylococcus aureus ATCC 29213.
The subject of assay [8] is Staphylococcus aureus ATCC 25923.

As for `CC[C@H](C)[C@H](NC(=O)[C@H](CC(N)=O)NC(=O)[C@H](CCCN=C(N)N)NC(=O)[C@H](CCC(N)=O)NC(=O)[C@H](Cc1c[nH]c2ccccc12)NC(=O)[C@H](C)NC(=O)[C@@H](N)Cc1ccccc1)C(=O)N[C@@H](CCCN=C(N)N)C(=O)N[C@@H](CCCCN)C(=O)N[C@H](C(=O)N[C@@H](CCCN=C(N)N)C(N)=O)C(C)C` [FAWQRNIRKVR], the MIC in assay [1] was no less than 170 µM.

In the case of `CC(C)C[C@H](NC(=O)[C@H](C)NC(=O)[C@H](CC(N)=O)NC(=O)[C@H](C)NC(=O)[C@@H](NC(=O)CNC(=O)[C@H](C)NC(=O)[C@@H](NC(=O)[C@@H](NC(=O)[C@H](CCCCN)NC(=O)[C@H](CCC(N)=O)NC(=O)[C@H](Cc1ccccc1)NC(=O)[C@H](CC(=O)O)NC(=O)[C@H](C)NC(=O)[C@H](CCC(N)=O)NC(=O)[C@H](CC(C)C)NC(=O)[C@@H](NC(=O)[C@@H]1CCCN1C(=O)[C@@H](NC(=O)[C@H](Cc1ccccc1)NC(=O)[C@@H](N)Cc1ccccc1)[C@@H](C)O)C(C)C)C(C)C)C(C)C)C(C)C)C(=O)N[C@@H](C)C(=O)N[C@@H](Cc1cnc[nH]1)C(=O)N[C@@H](CCCN=C(N)N)C(=O)N[C@@H](Cc1ccc(O)cc1)C(=O)N[C@@H](Cc1cnc[nH]1)C(=O)O` [FFTPVLQADFQKVVAGVANALAHRYH], the MIC in the assay with Escherichia coli was 73 µM (≈ 212 µg/mL); in assay [2] it was no less than 73 µM; against Listeria innocua, no less than 73 µM; in the assay with Micrococcus luteus it was no less than 85 µM.

Consider `CC[C@H](C)[C@H](NC(=O)[C@@H](N)Cc1ccccc1)C(=O)N[C@@H](Cc1c[nH]c2ccccc12)C(=O)N[C@@H](CCCN=C(N)N)C(=O)N[C@@H](Cc1c[nH]c2ccccc12)C(=O)N[C@@H](CCCN=C(N)N)C(=O)N[C@@H](Cc1c[nH]c2ccccc12)C(=O)N[C@@H](CCCN=C(N)N)C(N)=O` [FIWRWRWR], for which the MIC in assay [1] was no less than 47.9 µM.

With `CC[C@H](C)[C@H](NC(=O)[C@@H](NC(=O)[C@@H]1CCCN1C(=O)[C@H](CC(C)C)NC(=O)[C@@H](N)Cc1ccccc1)[C@@H](C)CC)C(=O)N[C@@H](C)C(=O)N[C@@H](CCCCN)C(=O)N[C@@H](CC(C)C)C(=O)N[C@@H](CC(C)C)C(=O)NCC(=O)NCC(=O)N[C@@H](CC(C)C)C(=O)N[C@@H](CC(C)C)C(N)=O` [FLPIIAKLLGGLL], the MIC in [3] was found to be 18.3 µM (≈ 25 µg/mL); in assay [4] it was 3.66 µM (≈ 5 µg/mL); in [5], 21.9 µM (≈ 30 µg/mL).

Regarding `CC(C)C[C@H](NC(=O)[C@@H](N)Cc1ccccc1)C(=O)N[C@@H](CO)C(=O)N[C@@H](Cc1ccccc1)C(=O)N1CCC[C@H]1C(=O)N[C@H](C(=O)N[C@H](C(=O)N[C@@H](CCCCN)C(=O)N[C@H](C(=O)N[C@@H](Cc1ccc(O)cc1)C(=O)N[C@@H](Cc1ccccc1)C(=O)N1CCC[C@H]1C(=O)N[C@@H](Cc1cnc[nH]1)C(=O)O)[C@@H](C)O)[C@@H](C)O)[C@@H](C)O` [FLSFPTTKTYFPH], the MIC in the assay on Escherichia coli came out at 9 µM (≈ 14.3 µg/mL); in assay [2] it was 5 µM (≈ 7.93 µg/mL); in the assay on Listeria innocua, 1 µM (≈ 1.59 µg/mL); against Micrococcus luteus A270, 5 µM (≈ 7.93 µg/mL).

Take `CC[C@H](C)[C@H](NC(=O)[C@H](CC(N)=O)NC(=O)[C@H](CCCN=C(N)N)NC(=O)[C@H](CCC(N)=O)NC(=O)[C@H](Cc1c[nH]c2ccccc12)NC(=O)[C@@H](N)Cc1ccccc1)C(=O)N[C@@H](CCCN=C(N)N)C(=O)N[C@@H](CCCCN)C(=O)N[C@H](C(=O)N[C@@H](CCCCN)C(=O)N[C@@H](CCCCN)C(N)=O)C(C)C` [FWQRNIRKVKK]: the MIC in assay [1] is no less than 166 µM.

With `CC[C@H](C)[C@H](NC(=O)[C@H](CCCN=C(N)N)NC(=O)[C@@H](NC(=O)[C@H](CCCN=C(N)N)NC(=O)[C@H](CCCN=C(N)N)NC(=O)[C@H](CCC(N)=O)NC(=O)[C@H](Cc1c[nH]c2ccccc12)NC(=O)[C@@H](N)Cc1ccccc1)[C@@H](C)CC)C(=O)N[C@@H](CCCN=C(N)N)C(=O)N[C@@H](CCCN=C(N)N)C(N)=O` [FWQRRIRIRR], the MIC in assay [1] is no less than 168 µM.

Turning to `NC(=O)[C@H](CCCN=C(N)N)NC(=O)[C@H](CCCN=C(N)N)NC(=O)[C@H](Cc1c[nH]c2ccccc12)NC(=O)[C@H](CCCN=C(N)N)NC(=O)[C@H](CCCN=C(N)N)NC(=O)[C@H](Cc1c[nH]c2ccccc12)NC(=O)[C@@H](N)Cc1ccccc1` [FWRRWRR], the MIC in assay [1] was no less than 108 µM.

In the case of `CC[C@H](C)[C@H](NC(=O)CNC(=O)[C@@H](NC(=O)[C@@H](NC(=O)[C@H](Cc1cnc[nH]1)NC(=O)[C@H](CCCCN)NC(=O)[C@H](C)NC(=O)[C@H](Cc1ccccc1)NC(=O)[C@H](CC(=O)O)NC(=O)[C@H](CC(C)C)NC(=O)[C@H](CC(C)C)NC(=O)CN)C(C)C)[C@@H](C)CC)C(=O)N[C@@H](C)C(=O)N[C@@H](CO)C(=O)N[C@@H](CCCCN)C(=O)N[C@@H](CC(C)C)C(N)=O` [GLLDFAKHVIGIASKL], the MIC is no less than 50 µM against Leuconostoc lactis and 100 µM (≈ 168 µg/mL) in assay [6].

In the case of `CC(C)C[C@@H]1NC(=O)CNC(=O)[C@H](CO)NC(=O)[C@H](CC(C)C)NC(=O)CNC(=O)[C@@H](NC(=O)[C@H](CC(C)C)NC(=O)[C@@H](NC(=O)[C@H](CCCCN)NC(=O)[C@H](CCCCN)NC(=O)CNC(=O)[C@@H](NC(=O)CNC(=O)[C@H](CC(C)C)NC(=O)[C@@H](NC(=O)CNC(=O)[C@H](CO)NC(=O)[C@H](CC(C)C)NC(=O)[C@H](CC(C)C)NC(=O)CN)C(C)C)C(C)C)C(C)C)CSSC[C@@H](C(=O)O)NC1=O` [GLLSGVLGVGKKVLCGLSGLC], the MIC against Staphylococcus aureus is 4.75 µM (≈ 9.36 µg/mL); with Escherichia coli, 2.37 µM (≈ 4.68 µg/mL); in [2] it was no less than 64.9 µM; in [7], 11.5 µM (≈ 22.6 µg/mL); in the assay on Candida albicans, 2.37 µM (≈ 4.68 µg/mL); against Bacillus subtilis, 9.5 µM (≈ 18.7 µg/mL). This compound registered an MIC in [5] of 5.73 µM (≈ 11.3 µg/mL).

As to `CC[C@H](C)[C@H](NC(=O)[C@H](C)NC(=O)[C@H](CCCN=C(N)N)NC(=O)[C@H](Cc1ccc(O)cc1)NC(=O)[C@H](CC(C)C)NC(=O)[C@H](CC(N)=O)NC(=O)[C@H](Cc1ccc(O)cc1)NC(=O)CNC(=O)[C@H](C)NC(=O)[C@@H](NC(=O)[C@@H](NC(=O)[C@@H](NC(=O)[C@H](CCCN=C(N)N)NC(=O)[C@@H](NC(=O)[C@@H](NC(=O)[C@@H](NC(=O)[C@@H]1CCCN1C(=O)[C@H](Cc1c[nH]c2ccccc12)NC(=O)[C@H](Cc1ccccc1)NC(=O)[C@H](CCCN=C(N)N)NC(=O)[C@@H](N)CCCCN)C(C)C)C(C)C)[C@@H](C)CC)[C@@H](C)O)C(C)C)C(C)C)C(=O)N[C@@H](CCCCN)C(=O)N[C@@H](CCCCN)C(=O)N[C@@H](CCCCN)C(=O)O` [KRFWPVVIRTVVAGYNLYRAIKKK], the MIC turned out to be 0.202 µM (≈ 0.586 µg/mL) in [3], 1.21 µM (≈ 3.52 µg/mL) in the assay on Bacillus subtilis, 6.45 µM (≈ 18.8 µg/mL) in assay [5] and 1.21 µM (≈ 3.52 µg/mL) in assay [8].

In the case of `CC[C@H](C)[C@H](NC(=O)[C@H](CC(N)=O)NC(=O)[C@H](CCCN=C(N)N)NC(=O)[C@H](CCC(N)=O)NC(=O)[C@H](Cc1c[nH]c2ccccc12)NC(=O)[C@H](Cc1ccccc1)NC(=O)[C@@H](N)CCCN=C(N)N)C(=O)N[C@@H](CCCN=C(N)N)C(=O)N[C@@H](CCCCN)C(=O)N[C@H](C(=O)N[C@@H](CCCN=C(N)N)C(=O)N[C@@H](CCCN=C(N)N)C(N)=O)C(C)C` [RFWQRNIRKVRR], the MIC in assay [1] is no less than 146 µM.

Turning to `CC[C@H](C)[C@H](NC(=O)[C@H](CC(N)=O)NC(=O)[C@H](CCCN=C(N)N)NC(=O)[C@H](CCC(N)=O)NC(=O)[C@H](Cc1c[nH]c2ccccc12)NC(=O)[C@H](CCCN=C(N)N)NC(=O)[C@@H](N)CCCN=C(N)N)C(=O)N[C@@H](CCCN=C(N)N)C(=O)N[C@@H](CCCCN)C(=O)N[C@@H](Cc1ccc(O)cc1)C(=O)N[C@@H](CCCN=C(N)N)C(=O)N[C@@H](CCCN=C(N)N)C(N)=O` [RRWQRNIRKYRR], the MIC in assay [1] is no less than 140 µM.

As for `CC[C@H](C)[C@H](NC(=O)[C@H](C)NC(=O)[C@H](CCCN=C(N)N)NC(=O)[C@H](Cc1ccc(O)cc1)NC(=O)[C@H](CC(C)C)NC(=O)[C@H](CC(N)=O)NC(=O)[C@H](Cc1ccc(O)cc1)NC(=O)CNC(=O)[C@H](C)NC(=O)[C@@H](NC(=O)[C@@H](NC(=O)[C@@H](NC(=O)[C@H](CCCN=C(N)N)NC(=O)[C@@H](NC(=O)[C@@H](NC(=O)[C@@H](NC(=O)[C@@H]1CCCN1C(=O)[C@@H](N)Cc1c[nH]c2ccccc12)C(C)C)C(C)C)[C@@H](C)CC)[C@@H](C)O)C(C)C)C(C)C)C(=O)N[C@@H](CCCCN)C(=O)N[C@@H](CCCCN)C(=O)N[C@@H](CCCCN)C(=O)O` [WPVVIRTVVAGYNLYRAIKKK], the MIC turned out to be 0.947 µM (≈ 2.34 µg/mL) in assay [3], 15.2 µM (≈ 37.5 µg/mL) in the assay on Bacillus subtilis, 15.2 µM (≈ 37.5 µg/mL) in assay [5] and 5.68 µM (≈ 14.1 µg/mL) in assay [8].

In general, MIC refers to the lowest concentration found to suppress growth. The low end stands for greater potency, the high end for weaker potency.
